In paper PMC6704710, “Preclinical evaluation of 3D185, a novel potent inhibitor of FGFR1/2/3 and CSF-1R, in FGFR-dependent and macrophage-dominant cancer models” (Journal of Experimental & Clinical Cancer Research : CR, 2019) one finds inhibition and IC50 data, which are given here for one compound.

Holding throughout (assay): Eurofins kinase panel
Holding throughout (format): biochemical

The target in experiment [1] is T1, BMPR2(h) (Homo sapiens, UniProt Q13873).
T1 construct: purchased Eurofins (KinaseProfiler)
T1 sequence (Q13873 27-1038): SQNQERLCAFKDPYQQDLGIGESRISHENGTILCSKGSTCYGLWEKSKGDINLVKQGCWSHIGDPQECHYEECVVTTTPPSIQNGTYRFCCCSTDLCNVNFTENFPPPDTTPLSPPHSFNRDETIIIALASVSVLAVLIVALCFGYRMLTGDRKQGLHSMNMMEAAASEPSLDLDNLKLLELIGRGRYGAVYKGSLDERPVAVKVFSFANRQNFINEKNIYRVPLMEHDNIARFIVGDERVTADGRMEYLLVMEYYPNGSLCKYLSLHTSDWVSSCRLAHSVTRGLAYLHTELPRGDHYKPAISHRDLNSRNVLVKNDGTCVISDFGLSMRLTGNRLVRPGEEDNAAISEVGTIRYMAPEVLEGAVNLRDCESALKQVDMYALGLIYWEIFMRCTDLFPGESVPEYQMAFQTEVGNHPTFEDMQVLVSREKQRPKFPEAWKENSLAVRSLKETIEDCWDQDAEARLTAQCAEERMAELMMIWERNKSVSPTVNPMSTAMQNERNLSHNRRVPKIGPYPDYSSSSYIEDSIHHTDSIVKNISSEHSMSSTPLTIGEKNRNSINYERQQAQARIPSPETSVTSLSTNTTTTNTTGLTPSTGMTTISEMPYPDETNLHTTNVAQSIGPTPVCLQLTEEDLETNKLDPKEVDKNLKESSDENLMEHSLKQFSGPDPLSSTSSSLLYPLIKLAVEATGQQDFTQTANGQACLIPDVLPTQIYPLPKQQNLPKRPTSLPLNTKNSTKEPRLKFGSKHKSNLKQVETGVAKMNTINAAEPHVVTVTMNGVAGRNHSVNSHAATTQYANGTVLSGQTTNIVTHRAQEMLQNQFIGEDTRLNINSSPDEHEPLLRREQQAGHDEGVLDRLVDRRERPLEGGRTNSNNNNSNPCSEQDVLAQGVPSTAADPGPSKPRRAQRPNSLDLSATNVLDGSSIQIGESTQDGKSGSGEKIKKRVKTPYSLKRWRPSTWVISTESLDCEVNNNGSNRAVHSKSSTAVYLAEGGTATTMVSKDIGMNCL
The note with it: read-out: Inhibition rate (%).

The target of experiment [2] is T2, CDK6/cyclinD3(h) (Homo sapiens, UniProt Q00534).
T2 construct: purchased Eurofins (KinaseProfiler)
The following applies: read-out: Inhibition rate (%).

Experiment [3] concerns the target T3, CaMKIδ(h) (Homo sapiens, UniProt Q8IU85).
T3 construct: purchased Eurofins (KinaseProfiler)
The following applies: read-out: Inhibition rate (%).

Experiment [4] concerns the target FGFR2(h) (Homo sapiens, UniProt P21802).
Experiment [5] addresses T4, PDK1(h) (Homo sapiens, UniProt O15530).
T4 construct: purchased Eurofins (KinaseProfiler)
T4 sequence (O15530 1-556): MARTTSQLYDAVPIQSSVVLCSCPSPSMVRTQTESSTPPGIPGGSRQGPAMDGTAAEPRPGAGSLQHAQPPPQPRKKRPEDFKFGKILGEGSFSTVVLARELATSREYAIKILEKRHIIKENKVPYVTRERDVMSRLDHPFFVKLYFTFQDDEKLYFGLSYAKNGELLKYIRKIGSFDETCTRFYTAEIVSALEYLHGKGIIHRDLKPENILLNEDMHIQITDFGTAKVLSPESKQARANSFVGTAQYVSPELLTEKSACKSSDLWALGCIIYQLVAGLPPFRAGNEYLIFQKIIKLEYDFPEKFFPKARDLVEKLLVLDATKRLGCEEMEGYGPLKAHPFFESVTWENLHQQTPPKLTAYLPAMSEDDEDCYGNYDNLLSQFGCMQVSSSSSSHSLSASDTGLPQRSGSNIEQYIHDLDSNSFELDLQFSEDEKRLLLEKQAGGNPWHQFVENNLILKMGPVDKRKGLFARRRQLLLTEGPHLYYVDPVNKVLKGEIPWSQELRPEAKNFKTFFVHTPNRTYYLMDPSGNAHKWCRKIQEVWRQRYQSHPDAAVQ
The note with it: read-out: Inhibition rate (%).

Experiment [6] deals with T5, TBK1(h) (Homo sapiens, UniProt Q9UHD2).
T5 construct: purchased Eurofins (KinaseProfiler)
T5 sequence (Q9UHD2 1-729): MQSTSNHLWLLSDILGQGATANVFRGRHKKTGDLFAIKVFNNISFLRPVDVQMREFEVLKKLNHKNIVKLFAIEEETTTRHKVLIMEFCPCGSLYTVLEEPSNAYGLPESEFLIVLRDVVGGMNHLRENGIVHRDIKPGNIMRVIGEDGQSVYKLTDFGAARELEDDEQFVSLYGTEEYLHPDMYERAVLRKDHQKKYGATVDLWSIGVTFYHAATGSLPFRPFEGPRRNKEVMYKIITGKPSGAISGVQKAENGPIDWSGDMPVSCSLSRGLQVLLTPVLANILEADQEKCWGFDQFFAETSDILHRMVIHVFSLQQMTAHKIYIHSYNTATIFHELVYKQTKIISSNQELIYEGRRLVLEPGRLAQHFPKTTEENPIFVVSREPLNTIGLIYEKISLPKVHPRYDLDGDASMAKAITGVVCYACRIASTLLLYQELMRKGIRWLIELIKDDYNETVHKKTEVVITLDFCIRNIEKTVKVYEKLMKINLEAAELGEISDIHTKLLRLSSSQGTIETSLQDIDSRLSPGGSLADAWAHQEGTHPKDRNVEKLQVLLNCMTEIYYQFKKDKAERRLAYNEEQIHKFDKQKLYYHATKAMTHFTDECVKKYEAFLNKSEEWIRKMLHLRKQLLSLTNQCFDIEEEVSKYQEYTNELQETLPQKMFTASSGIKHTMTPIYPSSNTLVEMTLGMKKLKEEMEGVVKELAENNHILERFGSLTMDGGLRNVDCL
The note with it: read-out: Inhibition rate (%).

Broadly, the inhibition is the relative decrease from the control value, in per cent. One may read the IC50 as the midpoint of a concentration-inhibition curve.

Chain of FGFR2(h) (P21802 22-821): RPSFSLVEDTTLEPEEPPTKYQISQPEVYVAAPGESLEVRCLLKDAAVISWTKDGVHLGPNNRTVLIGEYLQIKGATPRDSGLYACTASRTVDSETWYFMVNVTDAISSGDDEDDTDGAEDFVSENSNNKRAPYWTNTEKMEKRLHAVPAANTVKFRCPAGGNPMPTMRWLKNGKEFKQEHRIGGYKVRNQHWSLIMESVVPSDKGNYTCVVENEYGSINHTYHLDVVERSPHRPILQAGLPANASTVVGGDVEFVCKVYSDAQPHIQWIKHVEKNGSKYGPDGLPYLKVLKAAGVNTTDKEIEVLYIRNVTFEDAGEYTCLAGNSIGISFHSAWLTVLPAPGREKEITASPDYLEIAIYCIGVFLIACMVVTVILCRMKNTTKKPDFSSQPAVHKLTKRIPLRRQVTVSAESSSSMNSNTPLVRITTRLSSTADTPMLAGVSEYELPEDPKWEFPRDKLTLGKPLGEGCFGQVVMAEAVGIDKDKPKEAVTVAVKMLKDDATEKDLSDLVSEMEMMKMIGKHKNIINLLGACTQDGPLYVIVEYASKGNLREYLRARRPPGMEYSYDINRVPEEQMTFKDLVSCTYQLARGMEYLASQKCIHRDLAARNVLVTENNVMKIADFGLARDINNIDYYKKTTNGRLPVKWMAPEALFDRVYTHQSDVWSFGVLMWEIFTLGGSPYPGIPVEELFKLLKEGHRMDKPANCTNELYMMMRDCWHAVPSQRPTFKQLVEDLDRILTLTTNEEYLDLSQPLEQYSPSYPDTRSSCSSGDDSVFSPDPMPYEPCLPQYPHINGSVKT
T2 sequence (Q00534 whole entry): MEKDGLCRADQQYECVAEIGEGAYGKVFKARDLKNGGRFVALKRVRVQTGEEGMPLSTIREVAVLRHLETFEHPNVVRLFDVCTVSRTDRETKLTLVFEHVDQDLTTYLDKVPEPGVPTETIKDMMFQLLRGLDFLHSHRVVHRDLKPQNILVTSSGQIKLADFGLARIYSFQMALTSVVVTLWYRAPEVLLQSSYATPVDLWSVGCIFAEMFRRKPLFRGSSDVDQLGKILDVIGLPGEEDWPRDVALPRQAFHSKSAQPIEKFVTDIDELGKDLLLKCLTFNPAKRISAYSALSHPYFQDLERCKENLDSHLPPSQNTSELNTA
T2 sequence (P30281 whole entry partner): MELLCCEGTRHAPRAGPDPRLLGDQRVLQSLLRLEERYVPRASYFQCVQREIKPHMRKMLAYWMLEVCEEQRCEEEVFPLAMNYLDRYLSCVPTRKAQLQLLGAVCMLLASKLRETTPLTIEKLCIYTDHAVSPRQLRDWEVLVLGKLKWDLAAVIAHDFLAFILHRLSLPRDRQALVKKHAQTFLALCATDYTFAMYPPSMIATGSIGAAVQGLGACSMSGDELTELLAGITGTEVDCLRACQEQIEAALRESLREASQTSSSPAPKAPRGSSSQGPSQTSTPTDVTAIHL
T3 sequence (Q8IU85 whole entry): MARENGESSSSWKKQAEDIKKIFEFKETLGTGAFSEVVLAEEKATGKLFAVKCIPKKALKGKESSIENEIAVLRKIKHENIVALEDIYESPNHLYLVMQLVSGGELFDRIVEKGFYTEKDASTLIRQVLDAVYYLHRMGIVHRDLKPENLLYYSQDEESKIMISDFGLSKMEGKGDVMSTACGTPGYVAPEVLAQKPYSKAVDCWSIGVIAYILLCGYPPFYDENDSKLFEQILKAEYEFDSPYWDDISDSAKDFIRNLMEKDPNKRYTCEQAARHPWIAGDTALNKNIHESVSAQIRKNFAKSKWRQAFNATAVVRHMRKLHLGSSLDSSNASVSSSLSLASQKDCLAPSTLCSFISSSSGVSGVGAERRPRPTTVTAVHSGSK

With `COc1cc(OC)c(Cl)c(-c2ccc3c(NC(=O)c4ccc(N5CCNC(C)(C)C5)cc4)n[nH]c3n2)c1Cl` [3D185], the inhibition at 0.01 µM is 5% in experiment [1] (10 nM); 9% in experiment [2] (10 nM); 0% in experiment [3] (10 nM); 93% in experiment [4] (read-out: Inhibition rate (%)); -5% in experiment [5] (10 nM); -6% in experiment [6] (10 nM). For the same compound, the inhibition at 0.1 µM in experiment [1] (100 nM) was -2%; in experiment [2] (100 nM), 15%; in experiment [3] (100 nM), 23%; in experiment [4] (read-out: Inhibition rate (%)), 98%; in experiment [5] (100 nM), -14%; in experiment [6] (100 nM) it was -2%. For the same compound, the inhibition at 1 µM in experiment [1] (1000 nM) is 4%; in experiment [2] (1000 nM) it was 16%; in experiment [3] (1000 nM), 76%; in experiment [4] (read-out: Inhibition rate (%)), 100%; in experiment [5] (1000 nM), -4%; in experiment [6] (1000 nM), -1%. In experiment [4] (estimated from 372-kinase panel), the IC50 was < 0.01 µM.
